Columns and labels:
Type in all cases: in vivo
[1] = test system: Echinochloa crus-galli (ECHCG); assay: Post-emergence herbicidal action against ECHCG; conditions: 20 g/ha, post-emergence at one-leaf stage, rated visually after about 3 weeks vs untreated controls
Procedure, shortened: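 Greenhouse plants in sandy loam were sprayed at the one-leaf stage, 2-3 weeks after sowing. Activity was scored visually after about 3 weeks against untreated controls (0% = like control, 100% = dead).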

[2] = test system: Amaranthus retroflexus (AMARE); assay: Post-emergence herbicidal action against AMARE; conditions: 20 g/ha, post-emergence at one-leaf stage, rated visually after about 3 weeks vs untreated controls
Procedure, shortened: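 Greenhouse-grown plants in sandy loam were treated at the one-leaf stage, 2–3 weeks after sowing. Activity was rated visually after about 3 weeks against untreated controls (100% = plants dead, 0% = like control).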

Setaria viridis (SETVI) [3] = assay: Pre-emergence herbicidal action against SETVI; conditions: scored visually after about 3 weeks vs untreated controls
Stellaria media (STEME) = assay: Pre-emergence herbicidal action against STEME; conditions: scored visually after about 3 weeks vs untreated controls
Procedure, shortened: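 Weed seeds are sown in pots under soil, and WP or EC formulations are applied pre-emergence to the soil surface as an aqueous suspension or emulsion with 0.5% additive. After about 3 weeks in the greenhouse, effect is scored visually as % versus untreated controls (100% = plants dead, 0% = like control).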

Viola tricolor (VIOTR) = assay: Pre-emergence herbicidal action against VIOTR; conditions: scored visually after about 3 weeks vs untreated controls
Procedure, shortened: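 Seeds were sown in pots and covered with soil. After ~3 weeks in the greenhouse, effect was scored visually versus untreated controls (100% = plants dead, 0% = like control).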

Setaria viridis (SETVI) [4] = assay: Post-emergence herbicidal action against SETVI; conditions: 20 g/ha, post-emergence at one-leaf stage, rated visually after about 3 weeks vs untreated controls
Procedure, shortened: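 Monocot and dicot weeds grown in sandy loam in greenhouse, sprayed post-emergence at one-leaf stage (2–3 weeks after sowing) with WP or EC formulations in water plus 0.5% additive at […] (converted). Visual rating after about 3 weeks versus untreated controls; 100% = plants dead, 0% = like control.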

[5] = test system: Abutilon theophrasti (ABUTH); assay: Pre-emergence herbicidal action against ABUTH; conditions: scored visually after about 3 weeks vs untreated controls
Procedure, shortened: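 Sown pots had WP or EC formulations sprayed onto the covering soil as aqueous suspension/emulsion with 0.5% additive, then were kept in a greenhouse. After about 3 weeks, damage was scored visually as % versus untreated controls (100% = plants dead, 0% = like controls).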

Cn1ncc(C(=O)c2ccc(C(F)(F)C(F)(F)F)c3c2OCS3)c1O [Example 1-128]
Post-emergence action against ECHCG [1]: 90% | Post-emergence action against AMARE [2]: 80% | Pre-emergence action against SETVI (Setaria viridis (SETVI) [3]; 80 g/ha): 100% | Pre-emergence action against STEME (Stellaria media (STEME); 80 g/ha): 100% | Pre-emergence action against VIOTR (Viola tricolor (VIOTR); 80 g/ha): 100% | Post-emergence action against SETVI (Setaria viridis (SETVI) [4]): 90% | Pre-emergence action against ABUTH ([5]; 80 g/ha): 90%

Cn1ncc(C(=O)c2ccc(C(F)(F)F)c3c2OCCS3)c1O [Example 1-15]
Post-emergence action against ECHCG [1]: 80% | Post-emergence action against AMARE [2]: 80% | Pre-emergence action against SETVI (Setaria viridis (SETVI) [3]; 80 g/ha): 100% | Pre-emergence action against STEME (Stellaria media (STEME); 80 g/ha): 100% | Pre-emergence action against VIOTR (Viola tricolor (VIOTR); 80 g/ha): 100% | Post-emergence action against SETVI (Setaria viridis (SETVI) [4]): 80%

Cn1ncc(C(=O)c2ccc(C(F)(F)F)c3c2OC[S+]3[O-])c1O (stereo not shown) [Example 1-28]
Post-emergence action against ECHCG [1]: 90% | Post-emergence action against AMARE [2]: 100% | Pre-emergence action against SETVI (Setaria viridis (SETVI) [3]; 320 g/ha): 100% | Pre-emergence action against STEME (Stellaria media (STEME); 320 g/ha): 100% | Pre-emergence action against VIOTR (Viola tricolor (VIOTR); 320 g/ha): 100% | Post-emergence action against SETVI (Setaria viridis (SETVI) [4]): 90% | Pre-emergence action against ABUTH ([5]; 320 g/ha): 100%

CCn1ncc(C(=O)c2ccc(C(F)(F)F)c3c2OCC[S+]3[O-])c1O (stereo not shown) [Example 1-35]
Post-emergence action against ECHCG [1]: 80% | Post-emergence action against AMARE [2]: 100% | Pre-emergence action against SETVI (Setaria viridis (SETVI) [3]; 80 g/ha): 100% | Pre-emergence action against STEME (Stellaria media (STEME); 80 g/ha): 100% | Pre-emergence action against VIOTR (Viola tricolor (VIOTR); 80 g/ha): 100% | Post-emergence action against SETVI (Setaria viridis (SETVI) [4]): 100% | Pre-emergence action against ABUTH ([5]; 80 g/ha): 100%

Cc1nn(C)c(O)c1C(=O)c1ccc(C(F)(F)F)c2c1OCC[S+]2[O-] (stereo not shown) [Example 1-40]
Post-emergence action against ECHCG [1]: 90% | Post-emergence action against AMARE [2]: 80% | Pre-emergence action against SETVI (Setaria viridis (SETVI) [3]; 80 g/ha): 100% | Pre-emergence action against STEME (Stellaria media (STEME); 80 g/ha): 100% | Post-emergence action against SETVI (Setaria viridis (SETVI) [4]): 80% | Pre-emergence action against ABUTH ([5]; 80 g/ha): 100%

Cc1nn(C)c(O)c1C(=O)c1ccc(C(F)(F)F)c2c1OCCS2(=O)=O [Example 1-55]
Post-emergence action against ECHCG [1]: 100% | Post-emergence action against AMARE [2]: 100% | Pre-emergence action against STEME (Stellaria media (STEME); 80 g/ha): 100% | Pre-emergence action against VIOTR (Viola tricolor (VIOTR); 80 g/ha): 90% | Pre-emergence action against ABUTH ([5]; 80 g/ha): 100%

Cn1ncc(C(=O)c2ccc(C(F)(F)F)c3c2OCS3)c1O [Example 1-13]
Post-emergence action against ECHCG [1]: 90% | Post-emergence action against AMARE [2]: 90% | Pre-emergence action against SETVI (Setaria viridis (SETVI) [3]; 320 g/ha): 100% | Pre-emergence action against STEME (Stellaria media (STEME); 320 g/ha): 100% | Pre-emergence action against VIOTR (Viola tricolor (VIOTR); 320 g/ha): 100% | Post-emergence action against SETVI (Setaria viridis (SETVI) [4]): 100% | Pre-emergence action against ABUTH ([5]; 320 g/ha): 100%

CCn1ncc(C(=O)c2ccc(C(F)(F)F)c3c2OCCS3(=O)=O)c1O [Example 1-50]
Post-emergence action against ECHCG [1]: 80% | Post-emergence action against AMARE [2]: 100% | Pre-emergence action against SETVI (Setaria viridis (SETVI) [3]; 80 g/ha): 100% | Pre-emergence action against STEME (Stellaria media (STEME); 80 g/ha): 100% | Post-emergence action against SETVI (Setaria viridis (SETVI) [4]): 80% | Pre-emergence action against ABUTH ([5]; 80 g/ha): 100%

Cn1ncc(C(=O)c2ccc(C(F)(F)F)c3c2OCCS3(=O)=O)c1O [Example 1-45]
Post-emergence action against AMARE [2]: 100% | Pre-emergence action against SETVI (Setaria viridis (SETVI) [3]; 80 g/ha): 100% | Pre-emergence action against STEME (Stellaria media (STEME); 80 g/ha): 100% | Pre-emergence action against VIOTR (Viola tricolor (VIOTR); 80 g/ha): 100% | Pre-emergence action against ABUTH ([5]; 80 g/ha): 100%

Cn1ncc(C(=O)c2ccc(C(F)(F)F)c3c2OCC[S+]3[O-])c1O (stereo not shown) [Example 1-30]
Post-emergence action against ECHCG [1]: 100% | Post-emergence action against AMARE [2]: 100% | Pre-emergence action against SETVI (Setaria viridis (SETVI) [3]; 80 g/ha): 100% | Pre-emergence action against STEME (Stellaria media (STEME); 80 g/ha): 100% | Pre-emergence action against VIOTR (Viola tricolor (VIOTR); 80 g/ha): 100% | Post-emergence action against SETVI (Setaria viridis (SETVI) [4]): 90% | Pre-emergence action against ABUTH ([5]; 80 g/ha): 100%

Cn1nc(C2CC2)c(C(=O)c2ccc(C(F)(F)F)c3c2OCC[S+]3[O-])c1O (stereo not shown) [Example 1-116]
Post-emergence action against ECHCG [1]: 100% | Post-emergence action against AMARE [2]: 90% | Pre-emergence action against SETVI (Setaria viridis (SETVI) [3]; 80 g/ha): 100% | Pre-emergence action against STEME (Stellaria media (STEME); 80 g/ha): 100% | Pre-emergence action against VIOTR (Viola tricolor (VIOTR); 80 g/ha): 100% | Post-emergence action against SETVI (Setaria viridis (SETVI) [4]): 90% | Pre-emergence action against ABUTH ([5]; 80 g/ha): 80%
